The values below come from patent US6133275A, “3-phenylpyrrolidine alpha-1 adrenergic compounds” (Abbott Laboratories, priority 1998, dated 2000).

Counter-ions that a name gives are not always drawn.

The target of one experiment is T1, α1a (Bovine) (Bos taurus, UniProt P18130).
T1 sequence (P18130 1-466): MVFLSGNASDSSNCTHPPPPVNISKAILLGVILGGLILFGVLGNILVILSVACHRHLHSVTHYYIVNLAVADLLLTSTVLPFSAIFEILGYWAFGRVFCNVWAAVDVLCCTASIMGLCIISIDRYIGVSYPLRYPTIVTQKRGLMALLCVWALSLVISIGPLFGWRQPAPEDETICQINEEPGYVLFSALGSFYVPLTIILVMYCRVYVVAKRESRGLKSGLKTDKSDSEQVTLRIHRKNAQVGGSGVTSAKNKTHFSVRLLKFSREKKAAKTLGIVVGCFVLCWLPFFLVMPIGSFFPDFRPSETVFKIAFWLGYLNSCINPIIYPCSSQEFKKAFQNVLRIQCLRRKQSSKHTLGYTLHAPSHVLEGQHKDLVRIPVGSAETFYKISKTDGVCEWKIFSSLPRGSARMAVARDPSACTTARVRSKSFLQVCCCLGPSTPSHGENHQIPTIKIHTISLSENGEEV
Put plainly: Radioligand binding, displacement of [3H]-prazosin from cloned α1a (bovine) expressed in LTK cells. The settings on record: [3H]-prazosin 0.2 nM; cloned bovine α1a in LTK cell membranes; 25° C., 50 minutes. (In general: In a radioligand displacement assay an active substance lowers the binding of a labelled ligand.)

For the next experiment, the target named is T2, α1d (rat) (Rattus norvegicus, UniProt P23944).
T2 sequence (P23944 1-561): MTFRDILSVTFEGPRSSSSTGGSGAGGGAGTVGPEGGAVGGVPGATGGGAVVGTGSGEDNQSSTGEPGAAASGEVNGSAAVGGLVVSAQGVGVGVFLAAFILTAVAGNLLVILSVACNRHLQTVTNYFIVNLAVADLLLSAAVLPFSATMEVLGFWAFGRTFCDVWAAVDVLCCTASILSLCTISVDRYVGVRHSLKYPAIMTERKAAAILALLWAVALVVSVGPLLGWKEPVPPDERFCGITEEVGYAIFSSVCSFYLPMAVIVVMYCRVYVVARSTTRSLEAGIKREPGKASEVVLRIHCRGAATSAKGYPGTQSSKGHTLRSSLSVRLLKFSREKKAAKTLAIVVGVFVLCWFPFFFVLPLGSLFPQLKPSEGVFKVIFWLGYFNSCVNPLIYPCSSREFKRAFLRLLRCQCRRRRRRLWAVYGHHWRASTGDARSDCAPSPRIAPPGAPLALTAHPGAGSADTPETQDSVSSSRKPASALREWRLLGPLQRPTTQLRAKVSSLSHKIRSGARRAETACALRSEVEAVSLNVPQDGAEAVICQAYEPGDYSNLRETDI
The experiment is described as follows: Radioligand binding, displacement of [3H]-prazosin from cloned α1d (rat) expressed in LTK cells. The settings on record: [3H]-prazosin 0.2 nM; cloned rat α1d in LTK cell membranes; 25° C., 50 minutes.

Another experiment concerns the target T3, α1b (Hamster) (Mesocricetus auratus, UniProt P18841).
T3 sequence (P18841 1-515): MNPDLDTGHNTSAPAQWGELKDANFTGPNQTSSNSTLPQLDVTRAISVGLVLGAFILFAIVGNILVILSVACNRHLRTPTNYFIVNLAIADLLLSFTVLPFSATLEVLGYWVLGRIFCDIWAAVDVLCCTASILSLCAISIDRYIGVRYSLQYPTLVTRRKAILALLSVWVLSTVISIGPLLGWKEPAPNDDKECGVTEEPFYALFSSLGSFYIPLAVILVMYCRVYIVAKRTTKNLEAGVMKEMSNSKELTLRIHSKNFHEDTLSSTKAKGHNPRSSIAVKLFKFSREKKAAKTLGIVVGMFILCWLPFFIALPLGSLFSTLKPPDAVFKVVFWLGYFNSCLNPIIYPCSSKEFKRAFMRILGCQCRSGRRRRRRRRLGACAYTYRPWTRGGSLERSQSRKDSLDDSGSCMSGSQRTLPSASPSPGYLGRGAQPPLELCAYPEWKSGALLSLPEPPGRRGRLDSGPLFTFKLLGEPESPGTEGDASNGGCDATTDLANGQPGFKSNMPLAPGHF
Put plainly: Radioligand binding, displacement of [3H]-prazosin from cloned α1b (hamster) expressed in LTK cells. As to conditions: [3H]-prazosin 0.2 nM; cloned hamster α1b in LTK cell membranes; 25° C., 50 minutes.

The target of a further experiment is T4, α1a (Rat) (Rattus norvegicus, UniProt P43140).
T4 sequence (P43140 1-466): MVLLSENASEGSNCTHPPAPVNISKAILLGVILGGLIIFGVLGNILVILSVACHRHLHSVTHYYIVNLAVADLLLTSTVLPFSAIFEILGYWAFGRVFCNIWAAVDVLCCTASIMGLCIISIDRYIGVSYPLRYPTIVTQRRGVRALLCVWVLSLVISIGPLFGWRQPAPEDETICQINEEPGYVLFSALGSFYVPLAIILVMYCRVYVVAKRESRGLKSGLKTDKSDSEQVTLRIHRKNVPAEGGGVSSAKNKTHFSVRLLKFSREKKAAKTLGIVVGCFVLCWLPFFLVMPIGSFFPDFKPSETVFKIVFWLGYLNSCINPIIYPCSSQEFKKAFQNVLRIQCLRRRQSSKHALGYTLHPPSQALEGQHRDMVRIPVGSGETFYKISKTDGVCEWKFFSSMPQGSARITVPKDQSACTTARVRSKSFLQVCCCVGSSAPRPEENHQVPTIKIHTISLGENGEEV
Put plainly: Radioligand binding, displacement of [3H]-prazosin from cloned α1a (rat) expressed in LTK cells. As to conditions: [3H]-prazosin 0.2 nM; cloned rat α1a in LTK cell membranes; 25° C., 50 minutes.

In general, Ki refers to a dissociation constant, usually derived from enzyme kinetics or from competition with a known ligand. Higher therefore signals a looser hold on the target.

Turning to `COc1ccccc1[C@H]1CCN(CCn2c(=O)[nH]c3c(sc4ccccc43)c2=O)C1` [Example 1, (R)-3-[2-[3-(2-Methoxyphenyl)-1-pyrrolidinyl]ethyl]-[1]benzothieno[3,2-d]pyrimidine-2,4(1H,3H)-dione, Monohydrochloride], the Ki on α1a (Bovine) was found to be 0.13 nM; on α1d (rat), 0.82 nM; at α1b (Hamster) it was 0.94 nM; on α1a (Rat), 1.8 nM.
On the same counts, the results for `COc1ccccc1[C@H]1CCN(CCCCn2c(=O)[nH]c3c(sc4ccccc43)c2=O)C1` [Example 2, (R)-3-[4-[3-(2-Methoxyphenyl)-1-pyrrolidinyl]butyl]-[1]benzothieno[3,2-d]pyrimidine-2,4(1H,3H)-dione Monohydrochloride] are 0.02 nM, 0.03 nM, 0.62 nM and 0.18 nM.
The corresponding values for `COc1cccc([C@H]2CCN(CCn3c(=O)[nH]c4c(sc5ccccc54)c3=O)C2)c1` [Example 3, (R)-3-[2-[3-(3-Methoxyphenyl)-1-pyrrolidinyl]ethyl]-[1]benzothieno[3,2-d]pyrimidine-2,4(1H,3H)-dione Monohydrochloride] are 5.95 nM, 20 nM, 59.7 nM and 34 nM.
The corresponding values for `COc1ccccc1[C@H]1CCN(CCn2c(=O)[nH]c3c(sc4cccnc43)c2=O)C1` [Example 4, (R)-3-[2-[3-(2-Methoxyphenyl)-1-pyrrolidinyl]ethyl]pyrido[2',3':4,5]thieno[3,2-d]pyrimidine-2,4(1H,3H)-dione bis(hydrochloride) Salt] are 0.83 nM, 2.38 nM, 1.52 nM and 2.61 nM.
With `COc1ccccc1[C@H]1CCN(CCCn2c(=O)[nH]c3c(sc4cccnc43)c2=O)C1` [Example 5, (R)-3-[3-[3-(2-Methoxyphenyl)-1-pyrrolidinyl]propyl]pyrido[2',3':4,5]thieno[3,2-d]pyrimidine-2,4(1H,3H)-dione Dihydrochloride], the Ki at α1a (Bovine) worked out at 1.25 nM; at α1d (rat) it was 2.25 nM; at α1b (Hamster), 9.68 nM; on α1a (Rat), 2.05 nM.
On the same counts, the results for `COc1ccccc1[C@H]1CCN(CCCCn2c(=O)[nH]c3c(sc4cccnc43)c2=O)C1` [Example 6, (R)-3-[4-[3-(2-Methoxyphenyl)-1-pyrrolidinyl]butyl]pyrido[2',3':4,5]thieno[3,2-d]pyrimidine-2,4(1H,3H)-dione Dihydrochloride] are 0.05 nM, 0.22 nM, 1.77 nM and 0.12 nM.
The corresponding values for `COc1ccccc1[C@H]1CCN(CCCCCn2c(=O)[nH]c3c(sc4cccnc43)c2=O)C1` [Example 7, (R)-3-[5-[3-(2-Methoxyphenyl)-1-pyrrolidinyl]pentyl]pyrido[2',3':4,5]thieno[3,2-d]pyrimidine-2,4(1H,3H)-dione, Dihydrochloride] are 0.18 nM, 2.13 nM, 4.86 nM and 2.11 nM.
Consider `COc1ccccc1[C@H]1CCN(CCCCn2c(=O)[nH]c3c(sc4ncccc43)c2=O)C1` [Example 8, (R)-3-[4-[3-(2-Methoxyphenyl)-1-pyrrolidinyl]butyl]pyrido[3',2':4,5]thieno[3,2-d]pyrimidine-2,4(1H,3H)-dione, Dihydrochloride], for which the Ki on α1a (Bovine) was found to be 0.06 nM; on α1d (rat) it was 0.09 nM; on α1b (Hamster), 1.76 nM; at α1a (Rat), 0.12 nM.
The corresponding values for `COc1ccccc1[C@H]1CCN(CCCCCn2c(=O)[nH]c3c(sc4ncccc43)c2=O)C1` [Example 9, (R)-3-[5-[3-(2-methoxyphenyl)-1-pyrrolidinyl]pentyl]pyrido[3',2':4,5]thieno[3,2-d]pyrimidine-2,4(1H,3H)-dione, Dihydrochloride] are 0.32 nM, 2.35 nM, 7.38 nM and 3.3 nM.
On to `COc1ccccc1[C@H]1CCN(CCCCn2c(=O)[nH]c3c(sc4ccc(Cl)nc43)c2=O)C1` [Example 10, (R)-8-chloro-3-[4-[3-(2-methoxyphenyl)-1-pyrrolidinyl]butyl]pyrido[2',3':4,5]thieno[3,2-d]pyrimidine-2,4(1H,3H)-dione, Dihydrochloride], for which the Ki on α1a (Bovine) came to 0.05 nM; at α1d (rat), 0.06 nM; at α1b (Hamster) it was 1.18 nM; at α1a (Rat), 0.22 nM.
The corresponding values for `COc1ccc2sc3c(=O)n(CCCCN4CC[C@H](c5ccccc5OC)C4)c(=O)[nH]c3c2n1` [Example 11, (R)-8-methoxy-3-[4-[3-(2-methoxyphenyl)-1-pyrrolidinyl]butyl]pyrido-[2',3':4,5]thieno[3,2-d]pyrimidine-2,4(1H,3H)-dione, Dihydrochloride] are 0.11 nM, 0.12 nM, 1.79 nM and 0.67 nM.
On the same counts, the results for `COc1ccccc1[C@H]1CCN(CCCCN2C(=O)c3ccccc3C2=O)C1` [Example 12, (R)-2-[4-[3-(2-methoxyphenyl)-1-pyrrolidinyl]butyl]-1H-isoindole-1,3(2H)-dione, Monohydrochloride] are 0.06 nM, 0.28 nM, 0.96 nM and 0.32 nM.
As to `COc1ccccc1[C@H]1CCN(CCCCn2c(=O)[nH]c3c(sc4nccnc43)c2=O)C1` [Example 13, (R)-3-[4-[3-(2-Methoxyphenyl)-1-pyrrolidinyl]butyl]pyrazino[2',3':4,5]thieno[3,2-d]pyrimidine-2,4(1H,3H)-dione, Dihydrochloride], the Ki is 0.07 nM at α1a (Bovine), 0.36 nM on α1d (rat), 2.99 nM at α1b (Hamster) and 0.21 nM on α1a (Rat).
The corresponding values for `COc1ccccc1[C@H]1CCN(CCCCn2c(=O)[nH]c3c(sc4ncc(Cl)nc43)c2=O)C1` [Example 14, (R)-8-Chloro-3-[4-[3-(2-methoxyphenyl)-1-pyrrolidinyl]butyl]pyrazino[2',3':4,5]thieno[3,2-d]pyrimidine-2,4(1H,3H)-dione, Dihydrochloride] are 0.09 nM, 0.47 nM, 5.9 nM and 0.22 nM.
As for `COc1cnc2sc3c(=O)n(CCCCN4CC[C@H](c5ccccc5OC)C4)c(=O)[nH]c3c2n1` [Example 15, (R)-8-Methoxy-3-[4-[3-(2-methoxyphenyl)-1-pyrrolidinyl]butyl]pyrazino-[2',3':4,5]thieno[3,2-d]pyrimidine-2,4(1H,3H)-dione, Dihydrochloride], the Ki at α1a (Bovine) was 0.06 nM; at α1d (rat), 0.15 nM; on α1b (Hamster), 2.37 nM; at α1a (Rat) it was 0.26 nM.
